Here are results for 89 molecules from a melting point compilation (Tetko et al.; mined from patent text by program, amines drawn as free bases though some values may be those of a salt).

Where only a bound is given, the exact number is not on record here.

One may read the melting point as the temperature of the solid-liquid transition. `CC(C)OC(=O)c1ccc(NC(=O)N2CC(CCCC#N)C(c3ccc(Cl)cc3)=N2)cc1` (centres undefined) displayed a melting point of 109 to 113 °C. On to `O=C1N[C@@H](SC(c2ccccc2)(c2ccccc2)c2ccccc2)[C@@H]1CO` (relative stereo), for which the melting point fell in the range of 160 to 162 °C. To `COc1cc(C2=NC(C)(C)CO2)cc(OC)c1Br` belongs 172 to 174 °C. Molecule `Cn1cccc1-c1oncc1C(=O)Nc1ccccc1` gave a melting point of 100 to 103 °C. Next, `Nc1ccc2[nH]c3ccc([N+](=O)[O-])cc3c(=O)c2c1`: more than 350 °C; `COC1=C(c2cccc(C(F)(F)F)c2)C(CCC(=O)O)OC1=O` (centres undefined): 132 °C; `COc1ccc(-c2cc(NC(=O)CCCCBr)n[nH]2)cc1`: 150 to 152 °C. Molecule `CC(C)CCNC(=O)c1cc2c(Nc3cccc(Cl)c3)ncnc2[nH]1` showed a melting point of 304 to 306 °C. The molecule `Cc1c(C(=O)O)cnn1-c1cc(C(F)(F)F)ccc1Cl` returned a melting point of 124 to 125 °C. `O=C1NCC(CCc2ccccc2Cl)O1` (centres undefined) had a melting point of 74 to 75 °C.

With `Cc1cccc(-c2nc(-c3ccc(F)cc3)sc2-c2ccnc(N)c2)c1`, the melting point lay in the range of 160 to 162 °C. In turn, `COC[C@@H](C)n1cc(Cl)nc(N2CCc3cc(Br)cc(Br)c32)c1=O` yielded a melting point of 119 to 120 °C. The molecule `COc1c(C)cc(N2CCN(S(=O)(=O)c3ccc(C)cc3)CC2)cc1C` gave a melting point of 174 °C. `Cc1cc(OCc2ccccc2)cc(C)c1CC(=O)OCc1ccccc1` yielded a melting point of 62 to 64 °C. Next, `CC(C)=C1C(=O)N(c2ccc(N)cc2)C(=O)/C1=C(\C)c1cc(-c2ccccc2)sc1C`: 193 to 195 °C; `CN1CCC(C2(O)CC(c3ccc(F)cc3)c3ccc(F)cc32)CC1` (centres undefined): 146 to 147 °C.

Molecule `Cc1ccc(-n2c(-c3ccc(C#C[Si](C)(C)C)cc3)ccc2-c2ccc(C#C[Si](C)(C)C)cc2)cc1` displayed a melting point of 223 to 224 °C. With `CC(C)OCCNC(=O)c1cccc(-c2cccc3cc(Cc4cc(F)cc(Cl)c4)sc23)c1`, the melting point lay in the range of 84 to 85 °C. The molecule `CC(C)(C)c1ccc(NC(=N)Nc2ccc(C(C)(C)C)cc2)cc1` yielded a melting point of 161 to 162 °C. On to `Cc1c(CCC#N)c2c(c(C(C)C)c1OCc1ccccc1)CC(C)(C)O2`, for which the melting point lay within 158 to 159 °C. To `COc1ccc(N2CCNC2=O)cc1OC` belongs 168 °C; to `O=C(c1ccc(S)cc1)c1ccc([N+](=O)[O-])cc1`, 116 to 117 °C; to `O=c1[nH]c2ccsc2c(=O)n1CCN1CCN(c2ccccc2)CC1`, 215 to 217 °C. The molecule `C(=NC1CCCCC1)c1cccc(Oc2ccccc2)c1` returned a melting point of 72 to 74 °C.

Take `Cc1c(C)c2c(c(C)c1OCc1ccccc1)CCC(C)(CN1CCN(CCOc3ccc(C=C4SC(=O)NC4=O)cc3)CC1)O2` (racemic): the melting point was in the range of 192 to 194 °C. As to `Cc1oc(C(C)(C)C)nc1CCOc1ccc(CC(OC(C)C)C(=O)O)c2sccc12` (centres undefined), the melting point is 159 to 160 °C. `CN(C)C(=O)Nc1cc(Cl)ccc1O`: the melting point turned out to be 164 °C. With `CCOCCn1c(CN2CCN(Cc3ccccc3)CC2C)nc2cccnc21` (centres undefined), the melting point came out at 91.2 °C. Consider `O=c1c2c(n(-c3ccccc3)c3ccccc13)OCC2`, for which the melting point lay within 220 to 221 °C. Molecule `CSc1ncc(C(=O)NC2CC2)c(Nc2ccc3cn[nH]c3c2)n1` returned a melting point of more than 270 °C.

Consider `CCCCCCCCN(c1c([O-])[c+](N(CCCCCCCC)C2CC(C)(C)NC(C)(C)C2)[c+]1[O-])C1CC(C)(C)NC(C)(C)C1`, for which the melting point is 171 to 175 °C. `Cc1cccc2c1C(=O)CC2=O` returned a melting point of 125 to 128 °C.

Molecule `Oc1ncc(-c2cccc(F)c2)cn1` returned a melting point of 259 to 261 °C.

Turning to `Cc1[nH]c(C(=O)N2CCC(C(=O)N(C)CCN(C)C)CC2)c(C)c1-c1nc2ccc(C(=O)c3ccccc3)cc2[nH]1`, the melting point lay within 264 to 266 °C.

`O=C(Nc1ccc(C(=O)N2Cc3cccn3Cc3ccccc32)cc1)c1cccnc1Oc1ccc(Cl)cc1` came in with a melting point of 211 to 212 °C. On to `O=c1cc(N2CCCCC2)oc2c1ccc1ccccc12`, for which the melting point lay within 205 to 207 °C. `CCC(CC)(CC(=O)Nc1cccc(OCc2ccc3cccc(F)c3n2)c1)C(=O)O` returned a melting point of 128 to 129 °C.

In the case of `COC(=O)COc1cc2c(c3c1c(C(=O)C(N)=O)c(C)n3Cc1cccc(F)c1)CCC2`, the melting point was 142 to 144 °C. `CCn1cc(O)c(=O)c2ccccc21`: the melting point is 180 to 182 °C. Consider `C[C@@H]1OC(P(=O)(O)O)=CC[C@@]1(O)n1cnc2c(N)ncnc21`, for which the melting point amounted to 151 °C.

Molecule `CN(C)c1ccc2c(c1)Sc1cc(N(C)C=O)ccc1N2C=O` showed a melting point of 139 to 143 °C.

`Cc1ccc(OCc2nc3nccnc3c(=O)[nH]2)cc1` displayed a melting point of 232 to 233 °C. `CC(C)(C(=O)c1ccc(SCCO)cc1)N1CCOCC1`: the melting point was in the range of 62 to 64 °C. For `CC1Oc2ccc(Cl)cc2N(CC(O)CO)C1=O` (centres undefined), the melting point amounted to 88 °C. To `Cc1cc(C)c(Nc2nc(C)ccc2S(=O)(=O)c2ccc(OCc3ccccc3C#N)cc2)c(C)c1` belongs 208 to 210 °C; to `O=C1CN(CCN2CC(=O)N(CN3CCCC3)C(=O)C2)CC(=O)N1CN1CCCC1`, 150 to 155 °C; to `C=C1CC2(C)C(=O)CC(O)C2C2CCC3=CC(=O)CCC3C12` (centres undefined), 237 °C. To `c1ccc(-c2nc(CCCCCCc3nnn[nH]3)oc2-c2ccccc2)cc1` belongs 132 °C; to `COc1ccc(N(C(C)=O)C2=NN(c3ccc([N+](=O)[O-])cc3)C(=O)C2Br)cc1` (centres undefined), 163 to 164 °C. To `Cc1c(-c2ccncc2)[nH]c2c1C(=O)CC(c1ccccc1)C2` (centres undefined) belongs 256 to 257 °C. Take `Cc1cc(-n2cncn2)ccc1[N+](=O)[O-]`: the melting point lay within 116 to 117 °C.

Molecule `N#CC1(c2ccccc2Oc2ccc(Cl)cc2)CCNCC1` yielded a melting point of 128 to 130 °C. For the molecule `O=C(Cl)c1ccncc1`, the melting point worked out at 160 °C. To `Cn1c(=O)c2[nH]c(C=Cc3cccc(N)c3)nc2n(C)c1=O` belongs more than 300 °C; to `O=C(O)C1=Cc2cc(Cl)cc(C#CCCCCl)c2OC1C(F)(F)F` (centres undefined), 154 to 156 °C; to `COc1cc(C2(C=O)C=CC=CC2)ccc1OCCCBr` (centres undefined), 88 to 89 °C. Next, `O=C(N[C@H]1CC[C@H](CCN2CCN(c3nccc4c3CCO4)CC2)CC1)c1ccc(Cl)cc1`: 226 °C; `O=C1Cc2cc(Cl)c(N3CCCCC3)cc2O1`: 129 to 131 °C. For the molecule `Cc1ccc(I)c(CC(=O)N(C)C)c1`, the melting point was 47 to 49 °C.

Molecule `C=CCNc1cc(C(=O)O)cc(S(N)(=O)=O)c1Oc1ccccc1` yielded a melting point of 223 to 225 °C. To `CNC(=O)c1ccccc1Nc1nc(Nc2ccc3c(c2)CCN(CCF)CC3)ncc1Cl` belongs 170 to 174 °C; to `CCC(=O)c1cnc(C(=O)CC)cn1`, 112 °C.

Molecule `Nc1ccccc1C(=O)Nc1ccc(Br)c(C(F)(F)F)c1` came in with a melting point of 142 to 144 °C.

Molecule `CCNC(=O)c1ccc(-c2cnc3c(c2)N(Cc2ccccc2)C(=O)CN3)cc1` registered a melting point of 195 °C.

In turn, `NS(=O)(=O)Nc1ccc(CCN2CCC(COC(c3ccccc3)c3ccccc3)CC2)cc1` returned a melting point of 172 to 174 °C.

For the molecule `CC(=O)Nc1nc(CCc2ccc(CCl)cc2)c(Cc2ccc(S(C)(=O)=O)cc2)s1`, the melting point was in the range of 202 to 203 °C.

For `CCCN1N=C2C(=Cc3ccccc3)CSCC2C1c1ccccc1` (centres undefined), the melting point was 111 to 120 °C. To `C=CCNC(=O)C=Cc1cccc(F)c1` belongs 84.5 to 87 °C; to `OC1(COc2cccc3onc(OCC4CCN(CC5(O)CCOCC5)CC4)c23)CCCC1`, 136 °C. `CCC1(CCCCN2CCc3sc(Cl)cc3C2)C(=O)Nc2ccccc21` (centres undefined) came in with a melting point of 117 to 119 °C. As for `CN(c1cc(OCCCS(C)(=O)=O)cc2cc(C3=NCC(CN4CCS(=O)CC4)S3)[nH]c12)S(=O)(=O)c1ccccn1` (centres undefined), the melting point lay in the range of 107 to 110 °C. Take `CN1CC(CCCCN2CCN(c3ccccc3O)CC2)OC1=O` (centres undefined): the melting point was 106 to 110 °C. On to `O=C(O)C1(c2ccccc2)CCCCC1`, for which the melting point was in the range of 118 to 121 °C. For the molecule `COc1ccc(CN(C)CCCOc2ccc(NC(=O)c3cccc4c(=O)c5cccc(F)c5[nH]c34)cc2)cc1OC`, the melting point was found to be 150 °C. The molecule `c1cn(Cc2ccc3c(c2)Cc2c(-c4ccsc4)n[nH]c2-3)nn1` returned a melting point of 250 to 254 °C. In turn, `NCCC(O)(c1ccccc1)c1ccccc1` came in with a melting point of 134 to 136 °C. Next, `CC(=O)OC1CSC(Oc2cccc(-c3ncccc3Cl)c2)C(OC(C)=O)C1OC(C)=O` (centres undefined): 148 °C. Next, `Cc1cc(N)cc(C)c1S(=O)(=O)NCCSCCN`: 150 to 160 °C. `COc1ccc(S(=O)(=O)N(CC(=O)O)CC(=O)O)cc1` registered a melting point of 177 to 178 °C. Turning to `Cc1cc(C2OCCO2)ncc1[N+](=O)[O-]`, the melting point lay in the range of 77 to 79 °C. `CCCCC1=NC2(CCCC2)C(=O)N1Cc1ccc(-c2ccccc2S(=O)(=O)Nc2onc(C)c2C)c(OCCOC)c1` gave a melting point of 55 to 58 °C. On to `O=Cc1ccc(O)c(O)c1Cl`, for which the melting point was in the range of 193 to 195 °C. Next, `CP(=O)(O)CCC(=O)Nc1c(Br)cc(Br)cc1Br`: 248 °C; `O=c1nc(-c2ccccc2F)c2c3c(sc2[nH]1)CCCC3`: 274 to 277 °C; `CCCc1c(Br)c2ccc(C(N)=O)cc2n1Cc1ccccc1Br`: 122 to 125 °C. The molecule `O=C(O)C(=NOCc1cccnc1)c1csc(NC(c2ccccc2)(c2ccccc2)c2ccccc2)n1` had a melting point of 192 °C. Next, `CN1CCC(c2c[nH]c3ccc(NC(=O)c4cccc(Cl)c4)nc23)CC1`: 110 to 111 °C; `CC(=O)CCC(=O)N(C)c1nnc(-c2cccnc2)s1`: 146 to 147 °C; `C#CCN(c1ccc(C(=O)NC(CCCCCC(=O)O)C(=O)O)cc1)C1CCc2cc3nc(C)[nH]c(=O)c3cc21` (centres undefined): 186 °C.
